Laboratory results published in US7135615B2, “Chromosome doubling method” (The Curators of the University of Missouri, priority 2001, dated 2006).
Marks after values point to notes of the source that are not given here.

Legend:
[1] = test system: maize haploid seedlings of various origin; experiment: doubled haploid production trial, combined data (Total/Average) of haploids of eight different origins; settings: for Ear: Plants with kernels after selfing % / Tassel: No. of fertile anthers extruded/tassel / Tassel: No. of fertile sectors/tassel / Tassel: Plants with fertile sectors % / Ear: Plants with kernels after selfing No. / Tassel: Plants with fertile sectors No. / No. of plants Survived / Ear: No. of kernels produced/ear: Total/Average of eight origins, 600 kPa, 2 days; for Ear: No. of kernels produced/ear: selfed
Procedure: (§1) Ten to nineteen plants were treated for each plot. Self pollinations were conducted on these treated haploids if there were fertile sectors on the tassel. Pollen grains were collected carefully on a sheet of paper and transferred to the silks repeatedly. Silks and husks were cut back prior to pollination in order to permit maximum seed set. The numbers of fertile tassel and ear sectors, as well as the numbers of anthers and selfed kernels were recorded. Statistical analyses were as described above.

[2] = test system: maize haploid seedlings of origin Oh43 × Mo17; experiment: doubled haploid production trial, Oh43 × Mo17 haploids (Example 4); settings: 600 kPa, 2 days; for Ear: No. of kernels produced/ear: selfed
Procedure: as §1

[3] = test system: maize haploid seedlings of origin A619; experiment: doubled haploid production trial, A619 haploids (Example 4); settings: 600 kPa, 2 days; for Ear: No. of kernels produced/ear: selfed
Procedure: as §1

[4] = test system: flowers of grasses; maize haploids; experiment: nitrous oxide procedure, general statement of doubling and selfing rates; format: in vivo, maize (Zea mays L.)
Excerpt: The technique results from studies carried out for the development of a high-yield technique for chromosome doubling in grasses and particularly, in maize. The new procedure induces doubled sectors on the flowers of grasses at a high rate (50–100%) without injuring seedlings. […] With the technique, large number of plants (1000/day) can be treated by one person. In maize haploids, doubled sectors are induced both on the tassels and ears and self pollination is possible at 30–90% level, whereas no reliable procedure for chromosome doubling had previously been available.

[N-]=[N+]=O [nitrous oxide gas, nitrous oxide]
Ear: Plants with kernels after selfing % ([1]; 5 leaf stage): 36** %
Tassel: No. of fertile anthers extruded/tassel ([1]; 5 leaf stage): 32.3** /tassel
Tassel: No. of fertile sectors/tassel ([1]; 5 leaf stage): 0.9** /tassel
Tassel: Plants with fertile sectors % ([1]; 5 leaf stage): 61** %
Ear: Plants with kernels after selfing No. ([1]; 5 leaf stage, 95 survived): 33
Tassel: Plants with fertile sectors No. ([1]; 5 leaf stage, 95 survived): 58
No. of plants Survived ([1]; 5 leaf stage, 102 treated): 95
Ear: No. of kernels produced/ear ([1]; 5 leaf stage): 4.4** /ear
Ear: Plants with kernels after selfing % ([1]; 6 leaf stage): 44%
Tassel: No. of fertile anthers extruded/tassel ([1]; 6 leaf stage): 74.3 /tassel
Tassel: No. of fertile sectors/tassel ([1]; 6 leaf stage): 2.1** /tassel
Tassel: Plants with fertile sectors % ([1]; 6 leaf stage): 78** %
Ear: Plants with kernels after selfing No. ([1]; 6 leaf stage, 90 survived): 39
Tassel: Plants with fertile sectors No. ([1]; 6 leaf stage, 90 survived): 70
No. of plants Survived ([1]; 6 leaf stage, 97 treated): 90
Ear: No. of kernels produced/ear ([1]; 6 leaf stage): 8.6** /ear
Ear: Plants with kernels after selfing % ([1]; 7 leaf stage): 34** %
Tassel: No. of fertile anthers extruded/tassel ([1]; 7 leaf stage): 63.5** /tassel
Tassel: No. of fertile sectors/tassel ([1]; 7 leaf stage): 2.8** /tassel
Tassel: Plants with fertile sectors % ([1]; 7 leaf stage): 74** %
Ear: Plants with kernels after selfing No. ([1]; 7 leaf stage, 90 survived): 29
Tassel: Plants with fertile sectors No. ([1]; 7 leaf stage, 90 survived): 67
No. of plants Survived ([1]; 7 leaf stage, 101 treated): 90
Ear: No. of kernels produced/ear ([1]; 7 leaf stage): 7.0** /ear
effect of treatment on fertility ([1]; haploids derived from A619, B73 and W22×W23): no significant effect
treated haploids that produced double haploid progenies after self pollination ([1]; haploids induced from Oh43, A619×B73, and Oh43×Mol7): about 30%
Ear: Plants with kernels after selfing % ([2]; 5 leaf stage): 27 n.s. %
Tassel: No. of fertile anthers extruded/tassel ([2]; 5 leaf stage): 4.2 /tassel
Tassel: Plants with fertile sectors % ([2]; 5 leaf stage): 73** %
Ear: Plants with kernels after selfing No. ([2]; 5 leaf stage, 11 survived): 3
Tassel: Plants with fertile sectors No. ([2]; 5 leaf stage, 11 survived): 8
No. of plants Survived ([2]; 5 leaf stage, 11 treated): 11
Ear: No. of kernels produced/ear ([2]; 5 leaf stage): 0.5 n.s. /ear
Ear: Plants with kernels after selfing % ([2]; 6 leaf stage): 38%
Tassel: No. of fertile anthers extruded/tassel ([2]; 6 leaf stage): 29.8** /tassel
Tassel: No. of fertile sectors/tassel ([2]; 6 leaf stage): 2.5** /tassel
Tassel: Plants with fertile sectors % ([2]; 6 leaf stage): 100** %
Ear: Plants with kernels after selfing No. ([2]; 6 leaf stage, 13 survived): 5
Tassel: Plants with fertile sectors No. ([2]; 6 leaf stage, 13 survived): 13
No. of plants Survived ([2]; 6 leaf stage, 14 treated): 13
Ear: No. of kernels produced/ear ([2]; 6 leaf stage): 3.8 /ear
Ear: Plants with kernels after selfing % ([2]; 7 leaf stage): 13%
Tassel: No. of fertile anthers extruded/tassel ([2]; 7 leaf stage): 8.3* /tassel
Tassel: No. of fertile sectors/tassel ([2]; 7 leaf stage): 1.8** /tassel
Tassel: Plants with fertile sectors % ([2]; 7 leaf stage): 73** %
Ear: Plants with kernels after selfing No. ([2]; 7 leaf stage, 15 survived): 2
Tassel: Plants with fertile sectors No. ([2]; 7 leaf stage, 15 survived): 11
No. of plants Survived ([2]; 7 leaf stage, 19 treated): 15
Ear: No. of kernels produced/ear ([2]; 7 leaf stage): 0.6 /ear
Ear: Plants with kernels after selfing % ([3]; 5 leaf stage): 17 n.s. %
Tassel: No. of fertile anthers extruded/tassel ([3]; 5 leaf stage): 4.5 n.s /tassel
Tassel: No. of fertile sectors/tassel ([3]; 5 leaf stage): 0.3 n.s. /tassel
Tassel: Plants with fertile sectors % ([3]; 5 leaf stage): 25 n.s. %
Ear: Plants with kernels after selfing No. ([3]; 5 leaf stage, 12 survived): 2
Tassel: Plants with fertile sectors No. ([3]; 5 leaf stage, 12 survived): 3
No. of plants Survived ([3]; 5 leaf stage, 12 treated): 12
Ear: No. of kernels produced/ear ([3]; 5 leaf stage): 0.3 n.s. /ear
Ear: Plants with kernels after selfing % ([3]; 6 leaf stage): 33%
Tassel: No. of fertile anthers extruded/tassel ([3]; 6 leaf stage): 3.2 /tassel
Tassel: No. of fertile sectors/tassel ([3]; 6 leaf stage): 0.6 /tassel
Tassel: Plants with fertile sectors % ([3]; 6 leaf stage): 56%
Ear: Plants with kernels after selfing No. ([3]; 6 leaf stage, 9 survived): 3
Tassel: Plants with fertile sectors No. ([3]; 6 leaf stage, 9 survived): 5
No. of plants Survived ([3]; 6 leaf stage, 9 treated): 9
Ear: No. of kernels produced/ear ([3]; 6 leaf stage): 2.0 /ear
Ear: Plants with kernels after selfing % ([3]; 7 leaf stage): 31%
Tassel: No. of fertile anthers extruded/tassel ([3]; 7 leaf stage): 8.2 /tassel
Tassel: No. of fertile sectors/tassel ([3]; 7 leaf stage): 1.6 /tassel
Tassel: Plants with fertile sectors % ([3]; 7 leaf stage): 54%
Ear: Plants with kernels after selfing No. ([3]; 7 leaf stage, 13 survived): 4
Tassel: Plants with fertile sectors No. ([3]; 7 leaf stage, 13 survived): 7
No. of plants Survived ([3]; 7 leaf stage, 14 treated): 13
Ear: No. of kernels produced/ear ([3]; 7 leaf stage): 1.6 /ear
rate of doubled sectors induced on the flowers of grasses ([4]; grasses, without injuring seedlings): 50–100%
level at which self pollination is possible ([4]; maize haploids, doubled sectors on both tassels and ears): 30–90%
